US6794377B2, “Ortho, ortho-substituted nitrogen-containing bisaryl compounds, processes for their preparation, their use as medicaments, and pharmaceutical preparation comprising them” (Aventis Pharma Deutschland GmbH, priority 2000, dated 2004)
Where two headings read alike, the source gives them in different places.

Molecular target: T1, Kv1.5 channels from humans (Homo sapiens, UniProt P22460)
T1 construct: expressed in transfected cells; host or cells: Xenopus laevis oocytes injected with in vitro synthesized RNA
T1 sequence (P22460 whole entry): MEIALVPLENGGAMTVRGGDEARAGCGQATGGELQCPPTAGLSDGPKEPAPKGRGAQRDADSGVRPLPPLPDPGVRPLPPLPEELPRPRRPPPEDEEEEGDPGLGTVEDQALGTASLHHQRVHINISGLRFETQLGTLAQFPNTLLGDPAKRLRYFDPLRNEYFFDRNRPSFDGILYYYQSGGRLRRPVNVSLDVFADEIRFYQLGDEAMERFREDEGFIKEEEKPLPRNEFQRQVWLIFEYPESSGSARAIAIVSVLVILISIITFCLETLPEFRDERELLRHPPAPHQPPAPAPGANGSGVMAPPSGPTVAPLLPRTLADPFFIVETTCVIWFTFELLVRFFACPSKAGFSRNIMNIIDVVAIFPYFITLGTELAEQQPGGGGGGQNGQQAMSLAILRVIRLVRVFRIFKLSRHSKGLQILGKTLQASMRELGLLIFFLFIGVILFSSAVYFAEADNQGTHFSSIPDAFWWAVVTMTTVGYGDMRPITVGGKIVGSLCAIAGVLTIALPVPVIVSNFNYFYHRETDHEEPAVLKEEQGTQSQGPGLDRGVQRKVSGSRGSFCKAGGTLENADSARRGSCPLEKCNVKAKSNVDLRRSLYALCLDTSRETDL
Test: Kv1.5 currents in Xenopus oocytes, 2-microelectrode voltage clamp
Type: cell-based
Settings: human Kv1.5 expressed in Xenopus laevis oocytes, voltage jumps to 0 mV and 40 mV lasting 500 ms, room temperature, Hill equation
Method: Kv1.5 channels from humans were expressed in Xenopus oocytes. To this end, oocytes from Xenopus laevis were first isolated and defolliculated. RNA coding for Kv1.5 synthesized in vitro was then injected into these oocytes. After a Kv1.5 protein expression for 1-7 days, Kv1.5 currents were measured on the oocytes using the 2-microelectrode voltage clamp technique. The Kv1.5 channels were in this case as a rule activated using voltage jumps to 0 mV and 40 mV lasting 500 ms. The bath was rinsed using a solution of the following composition: NaCl 96 mM, KCl 2 mM, CaCl2 1.8 mM, MgCl2 1 mM, HEPES 5 mM (titrated with NaOH to pH 7.4). These experiments were carried out at room temperature. The following were employed for data acquisition and analysis: Gene clamp amplifier (Axon Instruments, Foster City, USA) and MacLab D/A converter and software (ADinstruments, Castle Hill, Australia). The substances according to the invention were tested by adding them to the bath solution in different concentrations. The effects of the substances were calculated as the percentage inhibition of the Kv1.5 control current which was obtained when no substance was added to the solution. The data were then extrapolated using the Hill equation in order to determine the inhibition concentrations IC50 for the respective substances.

| Structure (SMILES) | IC50 (read-out: IC50) [µM] | IC50 |
| --- | --- | --- |
| CCOc1ccc(C(=O)NCc2ccccc2-c2cccnc2C(=O)N[C@@H](CC(C)C)C(N)=O)cc1 [Example 40] | < 100 | – |
| CC(C)CCNC(=O)c1cccnc1-c1ccccc1CNC(=O)OCc1ccccc1 [Example 28] | 9 | – |
| CCOc1ccc(C(=O)NCc2ccccc2-c2cccnc2C(=O)Nc2ccc(OC)cc2)cc1 [Example 43] | < 100 | – |
| CC(C)CCNC(=O)c1ncccc1-c1ccccc1CNC(=O)OCc1ccccc1 [Example 18, Benzyl {2-[2-(3-methylbutylcarbamoyl)pyridin-3-yl]benzyl}carbamate] | 2.6 | – |
| CC(C)CCNC(=O)c1cccnc1-c1ccccc1CNC(=O)OC(C)(C)C [Example 5] | < 100 | – |
| CC(C)(C)OC(=O)NCc1ccccc1-c1ncccc1C(=O)NCc1ccc(F)cc1F [Example 6] | < 100 | – |
| COc1ccc(CCC(=O)NCc2ccccc2-c2cccnc2C(=O)NCCc2ccccn2)cc1 [Example 38] | 5.6 | – |
| CC(C)CCNC(=O)c1ccncc1-c1ccccc1CNC(=O)OC(C)(C)C [Example 3] | < 100 | – |
| C[C@H](CC(=O)NCc1ccccc1-c1cccnc1C(=O)NCc1cccnc1)c1ccccc1 [Example 46] | 2.7 | – |
| C[C@H](OC(=O)NCc1cnccc1-c1ccccc1C(=O)NCC1CC1)c1ccccc1 [Example 33] | 1.7 | – |
| CC(C)(C)OC(=O)NCc1ccccc1-c1cnccc1C(=O)NCc1ccc(F)cc1F [Example 4] | < 100 | – |
| O=C(CCc1cccc(OC(F)(F)F)c1)NCc1ccccc1-c1cccnc1C(=O)NCC1CC1 [Example 62] | 1.8 | – |
| CC(C)CCNC(=O)c1ccccc1-c1ccncc1CNC(=O)OC(C)(C)C [Example 9] | < 100 | – |
| O=C(CCc1cccc(OC(F)(F)F)c1)NCc1ccccc1-c1cccnc1C(=O)NCCc1cccnc1 [Example 60] | 3.1 | – |
| C[C@H](OC(=O)NCc1ccccc1-c1cccnc1C(=O)NCCc1cccnc1)c1ccccc1 [Example 58] | 0.7 | – |
| CC(C)C[C@H](NC(=O)c1nccnc1-c1ccccc1CNC(=O)OC(C)(C)C)C(N)=O [Example 11] | – | inactive |
| Cc1onc(-c2ccccc2)c1C(=O)NCc1ccccc1-c1cccnc1C(=O)NCC1CC1 [Example 48] | 2.4 | – |
| CC(C)CCNC(=O)c1ccncc1-c1ccccc1CNC(=O)OCc1ccccc1 [Example 26] | < 100 | – |
| CC(CC(=O)NCc1ccccc1-c1cccnc1C(=O)NCC1CC1)c1ccc(F)cc1 (centres unmarked) [Example 47] | 3.1 | – |
| COc1ccc(CC(=O)NCc2ccccc2-c2cccnc2C(=O)NCCc2ccccn2)cc1 [Example 36] | < 100 | – |
| COc1ccc(CCC(=O)NCc2ccccc2-c2cccnc2C(=O)Nc2ccc(OC)cc2)cc1 [Example 44] | 6.7 | – |
| COc1ccc(CC(=O)NCc2ccccc2-c2cccnc2C(=O)N[C@@H](CC(C)C)C(N)=O)cc1 [Example 39] | < 100 | – |
| CC(CC(=O)NCc1ccccc1-c1cccnc1C(=O)NCCc1cccnc1)c1ccc(F)cc1 (centres unmarked) [Example 59] | 3.2 | – |
| COc1ccc(CC(=O)NCc2ccccc2-c2cccnc2C(=O)Nc2ccc(OC)cc2)cc1 [Example 42] | < 100 | – |
| COc1ccc(CC(=O)NCc2ccccc2-c2nccnc2C(=O)NCCc2ccccn2)cc1 [Example 53] | – | inactive |

| Structure (SMILES) | IC50 (read-out: IC50) [µM] | IC50 |
| --- | --- | --- |
| COc1ccc(NC(=O)c2nccnc2-c2ccccc2CNC(=O)OC(C)(C)C)cc1 [Example 12] | < 100 | – |
| CC(C)(C(=O)NCc1ccccc1-c1cccnc1C(=O)NCC1CC1)c1ccc(Cl)cc1 [Example 61] | 1.7 | – |
| C[C@H](OC(=O)NCc1ccccc1-c1cccnc1C(=O)NCC1CC1)c1ccccc1 [Example 23] | 0.4 | – |
| C[C@@H](O)CNC(=O)c1ncccc1-c1ccccc1CNC(=O)C(C)(C)c1ccc(Cl)cc1 [Example 65] | < 100 | – |
| O=C(NCc1ccccc1-c1ncccc1C(=O)NCc1ccc(F)cc1F)OCc1ccccc1 [Example 29] | 7.6 | – |
| C[C@H](CC(=O)NCc1ccccc1-c1cccnc1C(=O)NCC1CC1)c1ccccc1 [Example 35, 3-{2-(R)-[(3-Phenylbutyrylamino)methyl]phenyl}pyridine-2-carboxylate cyclopropylmethylamide] | 0.4 | – |
| O=C(Cc1ccc(OC(F)(F)F)cc1)NCc1cnccc1-c1ccccc1C(=O)NCCc1cccnc1 [Example 56] | 6.1 | – |
| CC(C)(C(=O)NCc1ccccc1-c1cccnc1C(=O)NCCc1ccccn1)c1ccc(Cl)cc1 [Example 64] | 0.9 | – |
| O=C(Cc1ccc(OC(F)(F)F)cc1)NCc1cnccc1-c1ccccc1C(=O)NCC1CC1 [Example 55] | 3.8 | – |
| CC(C)C[C@H](NC(=O)c1nccnc1-c1ccccc1CNC(=O)O[C@@H](C)c1ccccc1)C(N)=O [Example 31] | < 100 | – |
| C[C@@H](O)CNC(=O)c1ncccc1-c1ccccc1CNC(=O)CCc1cccc(OC(F)(F)F)c1 [Example 66] | < 100 | – |
| C[C@H](CC(=O)NCc1ccccc1-c1cccnc1C(=O)NCCc1ccccn1)c1ccccc1 [Example 49] | 0.9 | – |
| C[C@H](OC(=O)NCc1ccccc1-c1cccnc1C(=O)NCCc1ccccn1)c1ccccc1 [Example 19] | 0.6 | – |
| CC(C)(C)OC(=O)NCc1ccccc1-c1nccnc1C(=O)NCc1ccc(F)cc1F [Example 8] | < 100 | – |
| COc1ccc(CC(=O)NCc2ccccc2-c2ncccc2C(=O)NCc2ccc(F)cc2F)cc1 [Example 51] | < 100 | – |
| COc1ccc(CCC(=O)NCc2ccccc2-c2cccnc2C(=O)N[C@@H](CC(C)C)C(N)=O)cc1 [Example 41] | < 100 | – |
| CC(CC(=O)NCc1ccccc1-c1cccnc1C(=O)NCCc1ccccn1)c1ccc(F)cc1 (centres unmarked) [Example 45] | 0.5 | – |
| CC(CC(=O)NCc1cnccc1-c1ccccc1C(=O)NCC1CC1)c1ccc(F)cc1 (centres unmarked) [Example 54] | < 100 | – |
| O=C(CCc1cccc(OC(F)(F)F)c1)NCc1ccccc1-c1cccnc1C(=O)NCCc1ccccn1 [Example 63] | 1.8 | – |
| COc1ccc(NC(=O)c2ncccc2-c2ccccc2CNC(=O)O[C@@H](C)c2ccccc2)cc1 [Example 21] | 2 | – |
| C[C@H](CC(=O)NCc1ccccc1-c1cccnc1C(=O)NC[C@@H](C)O)c1ccccc1 [Example 67] | < 100 | – |
| CC(C)C[C@H](NC(=O)c1ncccc1-c1ccccc1CNC(=O)O[C@@H](C)c1ccccc1)C(N)=O [Example 20] | 1.2 | – |
| C[C@H](OC(=O)NCc1cnccc1-c1ccccc1C(=O)NCCc1cccnc1)c1ccccc1 [Example 34] | 4.7 | – |
| CC(C)CCNC(=O)c1nccnc1-c1ccccc1CNC(=O)OC(C)(C)C [Example 7] | < 100 | – |
| CCOc1ccc(C(=O)NCc2ccccc2-c2cccnc2C(=O)NCCc2ccccn2)cc1 [Example 37] | < 100 | – |
